Numbered stars: 1 amine (or outer) side, 2 acyl side, 3 side chain; on linkers, the order of the positions; unused ones are H or OH. Bridge positions count the residues as written; N and C are the ends. Square brackets hold non-standard residues; d marks the D form. Peptide text beside a SMILES is read from it. Phe(4-CF3) = N[C@@H](Cc1ccc(C(F)(F)F)cc1)C(=O)O; Bip = N[C@@H](Cc1ccc(-c2ccccc2)cc1)C(=O)O; Phe(4-CN) = N#Cc1ccc(C[C@H](N)C(=O)O)cc1; Phe(4-NH2) = Nc1ccc(C[C@H](N)C(=O)O)cc1; dPhe(2-Cl) = N[C@H](Cc1ccccc1Cl)C(=O)O; Diglycolyl = O=C(COCC(=O)[*:2])[*:1]; d(hPhe) = N[C@H](CCc1ccccc1)C(=O)O; 2Pal = N[C@@H](Cc1ccccn1)C(=O)O; d2Thi = N[C@H](Cc1cccs1)C(=O)O; Suc = O=C(CCC(=O)[*:2])[*:1]; 3Abz = Nc1cccc(C(=O)O)c1

The first assay deals with T1, TNFα / TNFα receptor (TNFα R1/Fc) (Homo sapiens, UniProt P01375).
T1 construct: purchased R&D Systems
T1 sequence (P01375 77-233 limits assumed, species assumed): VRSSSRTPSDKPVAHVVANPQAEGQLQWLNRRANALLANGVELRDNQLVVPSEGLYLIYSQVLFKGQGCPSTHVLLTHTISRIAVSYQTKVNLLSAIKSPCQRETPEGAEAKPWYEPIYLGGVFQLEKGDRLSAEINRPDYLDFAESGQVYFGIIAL
Nature of the assay: Inhibition of binding of TNFα to the TNFα receptor (plate ELISA competition). The settings on record: Activity (IC50, inhibition of TNFα binding to TNFα R1/Fc), Table 2. The procedure, abridged: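 Compound dilutions were preincubated 30 min at RT with 8.33 nM TNFα R1/Fc in PBST with 2% DMSO, then added to wells coated with 15 nM TNFα for 30 min. Bound receptor was detected with HRP anti-human Fc and TMB, read as A450.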
(In general: ELISA stands for enzyme-linked immunosorbent assay.)
For the compound `O=C1COc2ccc(cc2)C[C@@H](C(=O)N[C@@H](CO)C(=O)O)NC(=O)[C@H](CCc2ccccc2)NC(=O)[C@@H](Cc2ccc(-c3ccccc3)cc2)NC(=O)[C@H](Cc2cccs2)N1` [Compound 486], the IC50 is < 10 µM.

The assay is the same for the next values; noted with them: Table 2; read-out: Activity (IC50, inhibition of TNFα binding to TNFα R1/Fc).
With `O=C1CCC(=O)N[C@H](CCc2ccccc2)C(=O)N[C@@H](Cc2ccc(-n3cccn3)cc2)C(=O)N[C@H](Cc2ccccc2)C(=O)N[C@H](C(=O)O)Cc2ccc(cc2)N1` [Compound 115], the IC50 was > 100 µM. The same measure, in the same setting: under `O=C1CCC(=O)N[C@H](CCc2ccccc2)C(=O)N[C@@H](Cc2ccc(-c3ccccc3)cc2)C(=O)N[C@H](Cc2ccccc2)C(=O)N[C@H](C(=O)Nc2cccc(C(=O)O)c2)Cc2ccc(cc2)N1` [Compound 352] ([d(hPhe)][Bip][dF][Phe(4-NH2)][3Abz]-OH; linker N-4 via Suc) stands > 100 µM; under `O=C(O)[C@H](Cc1ccccc1)NC(=O)[C@@H]1Cc2ccc(cc2)NC(=O)[C@H](O)[C@@H](O)C(=O)N[C@@H](Cc2cccs2)C(=O)N[C@H](Cc2ccc(Br)cc2)C(=O)N[C@@H](CCc2ccccc2)C(=O)N1` [Compound 437], 10 to 30 µM; under `COc1ccc(-c2ccc(C[C@@H]3NC(=O)[C@@H](CCc4ccccc4)NC(=O)CCC(=O)Nc4ccc(cc4)C[C@@H](C(=O)O)NC(=O)[C@@H](Cc4ccccc4)NC3=O)cc2)cc1` [Compound 168], 30 to 100 µM.

`O=C1CCC(=O)N[C@H](Cc2ccccc2)C(=O)N[C@@H](Cc2ccc(-c3ccccc3)cc2)C(=O)N[C@H](CCc2ccccc2)C(=O)N[C@H](C(=O)N[C@H](Cc2ccccc2)C(=O)O)Cc2ccc(cc2)N1` [Compound 455] ([dF][Bip][d(hPhe)][Phe(4-NH2)][dF]-OH; linker N-4 via Suc): the IC50 is > 100 µM. Same read-out and setting: under `N[C@H]1CC(=O)Nc2ccc(cc2)C[C@@H](C(=O)O)NC(=O)[C@@H](Cc2ccccc2)NC(=O)[C@H](Cc2ccc(-c3ccccc3)cc2)NC(=O)[C@@H](Cc2cccs2)NC1=O` [Compound 371] (H-D[d2Thi][Bip][dF][Phe(4-NH2)]-OH; lactam 1-5) stands > 100 µM; under `O=C1CCC(=O)N[C@H](CCc2ccccc2)C(=O)N[C@@H](Cc2ccc(-c3ccccc3)cc2)C(=O)N[C@H](Cc2ccccc2)C(=O)N[C@H](C(=O)O)Cc2ccc(cn2)N1` [Compound 546], < 10 µM.

Consider `O=C1CCC(=O)N[C@H](Cc2cccs2)C(=O)N[C@@H](Cc2ccc(-c3ccccc3)cc2)C(=O)N[C@@H](Cc2ccccn2)C(=O)N[C@H](C(=O)O)Cc2ccc(cc2)N1` [Compound 53] ([d2Thi][Bip][2Pal][Phe(4-NH2)]-OH; linker N-4 via Suc), for which the IC50 is > 100 µM. For the compound `O=C(O)[C@@H]1Cc2ccc(cc2)NC(=O)[C@H](O)[C@@H](O)C(=O)N[C@H](Cc2cccs2)C(=O)N[C@@H](Cc2ccc3ccccc3c2)C(=O)N[C@H](Cc2ccccc2)C(=O)N1` [Compound 190], the IC50 fell in the range of 10 to 30 µM. As for `O=C1COCC(=O)N[C@H](Cc2cccs2)C(=O)N[C@@H](Cc2ccc(-c3ccccc3)cc2)C(=O)N[C@H](Cc2ccccc2)C(=O)N[C@H](C(=O)O)Cc2ccc(cc2)N1` [Compound 310] ([d2Thi][Bip][dF][Phe(4-NH2)]-OH; linker N-4 via Diglycolyl), the IC50 was > 100 µM.

On to `O=C1COc2ccc(cc2)C[C@@H](C(=O)O)NC(=O)[C@H](CCc2ccccc2)NC(=O)[C@@H](Cc2ccc(-c3ccccc3)cc2)NC(=O)[C@H](Cc2ccc(OCc3ccccc3)cc2)N1` [Compound 685], for which the IC50 was < 10 µM.

On to `O=C1N[C@H](Cc2ccco2)C(=O)N[C@@H](C(=O)O)Cc2ccc(cc2)NC(=O)[C@H](O)[C@@H](O)C(=O)N[C@H](Cc2ccccc2)C(=O)N[C@H]1Cc1ccc(Br)cc1` [Compound 161], for which the IC50 was > 100 µM. Same read-out and setting: then `O=C(O)[C@@H]1Cc2ccc(cc2)NC(=O)[C@@H]2CCCC[C@H]2C(=O)N[C@H](Cc2cccs2)C(=O)N[C@@H](Cc2ccc(-c3ccccc3)cc2)C(=O)N[C@H](Cc2ccccc2)C(=O)N1` [Compound 9], with 10 to 30 µM. For `O=C1CCC(=O)N[C@H](Cc2ccccc2Cl)C(=O)N[C@@H](Cc2ccc(C(F)(F)F)cc2)C(=O)N[C@H](Cc2ccccc2)C(=O)N[C@H](C(=O)O)Cc2ccc(cc2)N1` [Compound 132] ([dPhe(2-Cl)][Phe(4-CF3)][dF][Phe(4-NH2)]-OH; linker N-4 via Suc), the IC50 was 30 to 100 µM. Still for that read-out and setting: then `CC(C)(C)c1ccc(C[C@@H]2NC(=O)[C@@H](Cc3ccc(-c4ccccc4)cc3)NC(=O)[C@H](Cc3cccs3)NC(=O)COc3ccc(cc3)C[C@@H](C(=O)O)NC2=O)cc1` [Compound 635], with < 10 µM; and `O=C(O)CN1Cc2cccc(c2)CNC(=O)CCC(=O)N[C@H](Cc2cccs2)C(=O)N[C@@H](Cc2ccc(-c3ccccc3)cc2)C(=O)N[C@H](Cc2ccccc2)C1=O` [Compound 7], with > 100 µM. The same measure, in the same setting: then `O=C1COc2ccc(cc2)C[C@@H](C(=O)N[C@@H](Cc2ccccc2)C(=O)O)NC(=O)[C@H](Cc2ccccc2)NC(=O)[C@H](Cc2ccc(-c3ccccc3)cc2)NC(=O)[C@H](Cc2cccs2)N1` [Compound 229], with < 10 µM.

Turning to `O=C1CCC(=O)N[C@H](Cc2cccs2)C(=O)N[C@@H](Cc2ccc(-c3ccccc3)cc2)C(=O)N[C@H](CCc2ccccc2)C(=O)N[C@H](C(=O)N[C@@H](Cc2ccccc2)C(=O)O)Cc2ccc(cc2)N1` [Compound 445] ([d2Thi][Bip][d(hPhe)][Phe(4-NH2)]F-OH; linker N-4 via Suc), the IC50 was in the range of 10 to 30 µM.

Take `O=C1CCC(=O)N[C@H](Cc2cccs2)C(=O)N[C@@H](Cc2ccc(-c3ccccc3)cc2)C(=O)N[C@H](Cc2ccccc2)C(=O)N[C@H](C(=O)O)Cc2ccc(cn2)N1` [Compound 545]: the IC50 was in the range of 10 to 30 µM. Still for that read-out and setting: then `O=C(O)CNC(=O)[C@@H]1Cc2ccc(cc2)NC(=O)CCC(=O)N[C@H](Cc2cccs2)C(=O)N[C@@H](Cc2ccc(-c3ccccc3)cc2)C(=O)N[C@H](CCc2ccccc2)C(=O)N1` [Compound 453] ([d2Thi][Bip][d(hPhe)][Phe(4-NH2)]G-OH; linker N-4 via Suc), with > 100 µM; and `O=C1COc2ccc(cc2)C[C@@H](C(=O)O)NC(=O)[C@@H](CCc2ccccc2)NC(=O)[C@H](Cc2ccc(-c3ccccc3)cc2)NC(=O)[C@@H](Cc2ccc(-c3ccncc3)cc2)N1` [Compound 518], with < 10 µM; and `O=C1COc2ccc(cc2)C[C@@H](C(=O)N[C@@H](Cc2ccc(O)cc2)C(=O)O)NC(=O)[C@H](CCc2ccccc2)NC(=O)[C@@H](Cc2ccc(-c3ccccc3)cc2)NC(=O)[C@H](Cc2ccc(-c3ccccc3)cc2)N1` [Compound 567], with < 10 µM. Consider `O=C1CCC(=O)N[C@H](Cc2cccs2)C(=O)N[C@@H](Cc2ccc(-c3ccccc3)cc2)C(=O)N[C@H](Cc2cccs2)C(=O)N[C@H](C(=O)O)Cc2ccc(cc2)N1` [Compound 74] ([d2Thi][Bip][d2Thi][Phe(4-NH2)]-OH; linker N-4 via Suc), for which the IC50 is 30 to 100 µM. Same read-out and setting: then `N[C@H]1CC(=O)N[C@H](Cc2cccs2)C(=O)N[C@@H](Cc2ccc(-c3ccccc3)cc2)C(=O)N[C@H](Cc2ccccc2)C(=O)N[C@H](C(=O)O)Cc2ccc(cc2)NC1=O` [Compound 373], with > 100 µM. Still for that read-out and setting: then `O=C1COc2ccc(cc2)C[C@@H](C(=O)O)NC(=O)[C@H](Cc2ccc(O)cc2)NC(=O)[C@@H](Cc2ccc(-c3ccccc3)cc2)NC(=O)[C@H](Cc2cccs2)N1` [Compound 427], with > 100 µM; and `O=C1CCC(=O)N[C@H](CCc2ccccc2)C(=O)N[C@@H](Cc2ccc(-c3ncccn3)cc2)C(=O)N[C@H](Cc2ccccc2)C(=O)N[C@H](C(=O)O)Cc2ccc(cc2)N1` [Compound 114], with > 100 µM; and `O=C(O)[C@H](Cc1ccccc1)NC(=O)[C@H]1Cc2ccc(cc2)NC(=O)[C@H](O)[C@@H](O)C(=O)N[C@H](Cc2cccs2)C(=O)N[C@@H](Cc2ccc(-c3ccccc3)cc2)C(=O)N[C@H](Cc2ccccc2)C(=O)N1` [Compound 430], with 10 to 30 µM. With `O=C1COc2ccc(cc2)C[C@@H](C(=O)O)NC(=O)[C@H](Cc2ccccc2)NC(=O)[C@H](Cc2ccc(-c3ccc(Cl)cc3)cc2)NC(=O)[C@H](Cc2cccs2)N1` [Compound 365], the IC50 was in the range of 30 to 100 µM. On the same count and under the same terms, then `O=C1COc2ccc(cc2)C[C@@H](C(=O)O)NC(=O)[C@H](Cc2ccc(-c3ccccn3)cc2)NC(=O)[C@@H](Cc2ccc(-c3ccccc3)cc2)NC(=O)[C@H](Cc2cccs2)N1` [Compound 632], with < 10 µM; and `O=C1COc2ccc(cc2)C[C@@H](C(=O)O)NC(=O)[C@H](Cc2ccccc2)NC(=O)[C@@H](Cc2cccc(Cl)c2)NC(=O)[C@H](Cc2cccs2)N1` [Compound 356], with > 100 µM; and `O=C(O)CCCNC(=O)[C@@H]1Cc2ccc(cc2)OCC(=O)N[C@@H](Cc2ccc(-c3ccccc3)cc2)C(=O)N[C@H](Cc2ccc(-c3ccccc3)cc2)C(=O)N[C@@H](CCc2ccccc2)C(=O)N1` [Compound 568], with 30 to 100 µM. Turning to `N#Cc1ccc(C[C@@H]2NC(=O)[C@@H](Cc3cccs3)NC(=O)CCC(=O)Nc3ccc(cc3)C[C@@H](C(=O)O)NC(=O)[C@@H](Cc3ccccc3)NC2=O)cc1` [Compound 94] ([d2Thi][Phe(4-CN)][dF][Phe(4-NH2)]-OH; linker N-4 via Suc), the IC50 is > 100 µM. Same read-out and setting: under `O=C1COc2ccc(cc2)C[C@@H](C(=O)O)NC(=O)[C@H](CCc2ccccc2)NC(=O)[C@@H](Cc2ccc(-c3ccccc3)cc2)NC(=O)[C@H](Cc2ccc(Cl)cc2Cl)N1` [Compound 697] stands < 10 µM; under `O=C(O)[C@@H]1Cc2ccc(cc2)NC(=O)[C@H](O)[C@@H](O)C(=O)N[C@H](Cc2cccs2)C(=O)N[C@@H](Cc2ccc(-c3ccccc3)cc2)C(=O)N[C@H](Cc2ccc(F)cc2)C(=O)N1` [Compound 288], > 100 µM; under `O=C1CN(Cc2ccccc2)C(=O)[C@H](Cc2ccc(-c3ccccc3)cc2)NC(=O)[C@H](Cc2cccs2)NC(=O)COc2ccc(cc2)C[C@@H](C(=O)O)N1` [Compound 257], > 100 µM.

The values above are taken from patent US8338565B2, “Macrocyclic compounds for inhibition of tumor necrosis factor alpha” (Ensemble Therapeutics Corporation, priority 2008, dated 2012).
